From ChEMBL document CHEMBL3045823, “Synthesis and Herbicidal Activities of the O-Syn and O-Anti Benzyl Epoxycyclopentyl Ethers” (2004)
Active and inactive are the calls of the source. The calls are words filed in the database; no cut-off is given here.

Experiments:
Echinochloa oryzicola [1] = test: Herbicide activity against Echinochloa oryzicola assessed as inhibition of root growth compound treated to seeds measured after 7 days; type: functional
Echinochloa oryzicola [2] = test: Herbicide activity against Echinochloa oryzicola assessed as inhibition of growth of first sheath compound treated to seeds measured after 7 days; type: functional
Echinochloa oryzicola [3] = test: Herbicide activity against Echinochloa oryzicola assessed as inhibition of shoot growth compound treated at 3 ppm to seeds measured after 7 days; type: functional, organism-based
Echinochloa oryzicola [4] = test: Herbicide activity against Echinochloa oryzicola assessed as inhibition of root growth compound treated at 3 ppm to seeds measured after 7 days; type: functional, organism-based

Compound	I50 (Echinochloa oryzicola [1]) [ppm]	growth inhibition (GI) (Echinochloa oryzicola [2])	growth inhibition (GI) (Echinochloa oryzicola [3])	growth inhibition (GI) (Echinochloa oryzicola [4])	I50 (Echinochloa oryzicola [2]) [ppm]
CCCCC[C@]12O[C@H]1CC[C@H]2OCc1ccccc1C (racemic)	0.25	Active	–	–	–
CCCCC[C@@]12O[C@@H]1CC[C@H]2OCc1ccccc1 (racemic)	–	Active	inactive	inactive	–
CCCCC[C@]12O[C@H]1CC[C@H]2OCc1ccccc1 (racemic)	0.03	–	–	–	0.2
CCCCC[C@@]12O[C@@H]1CC[C@H]2OCc1ccccc1Cl (racemic)	–	Active	inactive	inactive	–
CCCCC[C@]12O[C@H]1CC[C@H]2OCc1ccccc1F (racemic)	0.03	–	–	–	0.2
CCCCC[C@]12O[C@H]1CC[C@H]2OCc1ccccc1Cl (racemic)	0.5	Active	–	–	–
CCCCC[C@@]12O[C@@H]1CC[C@H]2OCc1ccccc1F (racemic)	–	Active	inactive	inactive	–
CCCCC[C@@]12O[C@@H]1CC[C@H]2OCc1ccccc1C (racemic)	–	Active	inactive	inactive	–
